Test results as given in patent publication US8926082B2, “Optically polymerizable ink jet ink, ink cartridge, and printer” (Ricoh Company, Ltd., priority 2011, dated 2015).

How the values were obtained:
[1] = "negative" or "none": SI value naturally less than 3; cited from earlier work
[2] = skin sensitization test by Local Lymph Node Assay (LLNA), Stimulation Index; format: in vivo; details: SI less than 3 = no problem
From the text: However, inkjet ink in which such compounds are blended to provide a curing property sufficient for practical use has a relatively high viscosity in comparison with typical optical polymerizable inkjet ink. Therefore, for example, if a desirable high image density is to be obtained by increasing the blend ratio of a pigment, such inkjet ink requires an extra decrease in the viscosity to achieve stable ejection.
The Local Lymph Node Assay (LLNA) method is a skin sensitization test defined as OECD Test Guideline 429 and as described in documents such as an issue of September 2005, Vol. 25, No. 9, p 55, published by CMC Publishing Co., Ltd., when a compound has a Stimulation Index (SI) of less than 3, which is an indicator of the degree of […], the compound is determined to have no problem with regard to the skin sensitization.
The details of A1 to A14, B1 and B2, C1 and C2, and D1 in Tables 1 to 8 are as follows: The value in the parentheses at the end of A1 to A14 is an SI value. “negative” or “none” means evaluation of skin sensitization as “negative” or “none” in the MSDS sheet in which the SI value is naturally less than 3.

Compound	evaluation of skin sensitization in the MSDS sheet [1]	SI value (Stimulation Index) [2]
Caprolactone-modified dipentaerythritol hexaacrylate [Example A7]	negative	–
C=C(C)C(=O)OC1CCOC1=O (stereo not drawn) [Example A4, γ-butylo lactone methacrylate]	–	2.1
C=CC(=O)NCCO [Example A11, Hydroxyethyl acrylamide]	None	–
